In patent US20240109918A1, “HETEROCYCLIC COMPOUNDS AND USES THEREOF” (Kumquat Biosciences Inc., priority 2022, published 2024):

target: T1, KRASG12D (Homo sapiens, UniProt P01116, G12D); test: Bio-Biochem-PPI-HTRF Ras-SOS1 interaction assay (KRAS G12D); format: biochemical; settings: 5 nM
T1 construct: made in house; host or cells: E. coli BL21 (DE3)
Description: (§1) The assay buffer can contain −5 mM HEPES pH 7.4, ˜150 mM NaCl, ˜ 1 mM DTT, 0.05% BSA and 0.0025% (v/v) Igepal. A Ras working solution is prepared in an assay buffer containing typically a suitable amount of the protein construct (e.g., GST-tagged K-Ras mutant) and the FRET donor (e.g., antiGST-Eu(K) from Cisbio, France). A SOS1 working solution is prepared in an assay buffer containing suitable amount of the protein construct (e.g., His-hSOS1) and the FRET acceptor (e.g., anti-6His-XL665 from Cisbio, France). A suitable amount of the protein construct will depend on the range of activity or range of IC50 values being detected or under investigation. For detecting IC50 within a range of 500 nM, the protein constructs of the same range of molarity can be utilized. […] A fixed volume of DMSO with or without test compound is transferred into a 384-well plate. Ras working solution is added to all wells of the test plate. SOS1 working solution is added to all wells except for those that are subsequently filled the inhibitor control solution. Upon incubation for about 10 minutes or longer, the fluorescence is measured with a M1000Pro plate reader (Tecan) using HTRF detection (excitation 337 nm, emission 1:620 nm, emission 2: 665 nm). Compounds are tested in duplicates at different concentrations (for example, 10 μM, 2.5 μM, 0.63 μM, 0.16 μM, 0.04 μM, 0.01 μM test compound). The ratiometric data (i.e., emission 2 divided by emission 1) is used to calculate IC50 values against Ras using GraphPad Prism (GraphPad software). Following this general procedure, samples were tested with or without a subject compound disclosed herein including compounds exemplified in Table 1 to assess their abilities to inhibit a mutant K-Ras relative to another mutant K-Ras or wildtype K-Ras. Signaling output measured in terms of IC50 values can be obtained, a ratio of IC50 against one mutant relative to another mutant can be calculated. For instance, a selective reduction of K-Ras G12D signaling output can be evidenced by a ratio greater than one. In particular, a selective reduction of K-Ras G12D signaling relative to K-Ras WT signaling is evidenced as the ratio of IC50 (against K-Ras WT) to IC50 (against K-Ras G12D) is greater than 1.

T1 sequence (P01116 1-188 isoform P01116-2 G12D): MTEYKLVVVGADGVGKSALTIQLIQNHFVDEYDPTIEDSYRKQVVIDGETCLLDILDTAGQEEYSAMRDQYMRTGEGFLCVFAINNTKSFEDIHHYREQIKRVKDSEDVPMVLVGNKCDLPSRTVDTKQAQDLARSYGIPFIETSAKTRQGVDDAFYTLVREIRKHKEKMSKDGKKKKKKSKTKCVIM

| SMILES | IC50 [µM] |
| --- | --- |
| N#Cc1c(N)sc2c(F)ccc(-c3c(Cl)cc4c(N5CCCCC6(CN(C(=O)C7CC7C(F)(F)F)C6)C5)nc(OC[C@@]56CCCN5C[C@H](F)C6)nc4c3F)c12 (stereo partly drawn) [compound 311, 2-amino-4-(6-chloro-8-fluoro-2-(((2R,7aS)-2-fluorotetrahydro-1H-pyrrolizin-7a(5H)-yl)methoxy)-4-(2-(2-(trifluoromethyl)cyclopropane-1-carbonyl)-2,6-diazaspiro[3.6]decan-6-yl)quinazolin-7-yl)-7-fluorobenzo[b]thiophene-3-carbonitrile] | < 5 |
| CC(C)=C(C#N)C(=O)N1CC2(C1)CN(c1nc(OC[C@@]34CCCN3C[C@H](F)C4)nc3c(F)c(-c4ccc(F)c5sc(N)c(C#N)c45)c(Cl)cc13)CCO2 [compound 245, 2-amino-4-(6-chloro-4-(2-(2-cyano-3-methylbut-2-enoyl)-5-oxa-2,8-diazaspiro[3.5]nonan-8-yl)-8-fluoro-2-(((2R,7aS)-2-fluorotetrahydro-1H-pyrrolizin-7a(5H)-yl)methoxy)quinazolin-7-yl)-7-fluorobenzo[b]thiophene-3-carbonitrile] | < 5 |
| N#Cc1c(N)sc2c(F)ccc(-c3c(Cl)cc4c(N5CCCCC6(CN(C(=O)C7CC8CCC7O8)C6)C5)nc(OC[C@@]56CCCN5C[C@H](F)C6)nc4c3F)c12 (stereo partly drawn) [compound 303, 4-(4-(2-(7-oxabicyclo[2.2.1]heptane-2-carbonyl)-2,6-diazaspiro[3.6]decan-6-yl)-6-chloro-8-fluoro-2-(((2R,7aS)-2-fluorotetrahydro-1H-pyrrolizin-7a(5H)-yl)methoxy)quinazolin-7-yl)-2-amino-7-fluorobenzo[b]thiophene-3-carbonitrile] | < 5 |
| N#Cc1c(N)sc2c(F)ccc(-c3c(Cl)cc4c(N5CCCCC6(CN(C(=O)C7C8COCC87)C6)C5)nc(OC[C@@]56CCCN5C[C@H](F)C6)nc4c3F)c12 (stereo partly drawn) [compound 299, 4-(4-(2-(3-oxabicyclo[3.1.0]hexane-6-carbonyl)-2,6-diazaspiro [3.6]decan-6-yl)-6-chloro-8-fluoro-2-(((2R,7aS)-2-fluorotetrahydro-1H-pyrrolizin-7a(5H)-yl)methoxy)quinazolin-7-yl)-2-amino-7-fluorobenzo[b]thiophene-3-carbonitrile] | < 5 |
| N#Cc1c(N)sc2c(F)ccc(-c3c(Cl)cc4c(N5CCCCC6(CN(C(=O)N7CC(C(F)F)C7)C6)C5)nc(OC[C@@]56CCCN5C[C@H](F)C6)nc4c3F)c12 [compound 262, 2-amino-4-(6-chloro-4-(2-(3-(difluoromethyl)azetidine-1-carbonyl)-2,6-diazaspiro[3.6]decan-6-yl)-8-fluoro-2-(((2R,7aS)-2-fluorotetrahydro-1H-pyrrolizin-7a(5H)-yl)methoxy)quinazolin-7-yl)-7-fluorobenzo[b]thiophene-3-carbonitrile] | < 5 |
| N#Cc1c(N)sc2c(F)ccc(-c3c(Cl)cc4c(N5CCCCC6(CN(C(=O)C7CC7)C6)C5)nc(OC[C@@]56CCCN5C[C@H](F)C6)nc4c3F)c12 [compound 281, 2-amino-4-(6-chloro-4-(2-(cyclopropanecarbonyl)-2,6-diazaspiro[3.6]decan-6-yl)-8-fluoro-2-(((2R,7aS)-2-fluorotetrahydro-1H-pyrrolizin-7a(5H)-yl)methoxy)quinazolin-7-yl)-7-fluorobenzo[b]thiophene-3-carbonitrile] | < 5 |
| N#Cc1c(N)sc2c(F)ccc(-c3c(Cl)cc4c(N5CCCCC6(CN(C(=O)C(F)Cl)C6)C5)nc(OC[C@@]56CCCN5C[C@H](F)C6)nc4c3F)c12 (stereo partly drawn) [compound 291, 2-amino-4-(6-chloro-4-(2-(2-chloro-2-fluoroacetyl)-2,6-diazaspiro[3.6]decan-6-yl)-8-fluoro-2-(((2R,7aS)-2-fluorotetrahydro-1H-pyrrolizin-7a(5H)-yl)methoxy)quinazolin-7-yl)-7-fluorobenzo[b]thiophene-3-carbonitrile] | < 5 |
| N#Cc1c(N)sc2c(F)ccc(-c3c(Cl)cc4c(N5CCCCC6(CN(C(=O)C7CC(C#N)C7)C6)C5)nc(OC[C@@]56CCCN5C[C@H](F)C6)nc4c3F)c12 (stereo partly drawn) [compound 295, 2-amino-4-(6-chloro-4-(2-(3-cyanocyclobutane-1-carbonyl)-2,6-diazaspiro[3.6]decan-6-yl)-8-fluoro-2-(((2R,7aS)-2-fluorotetrahydro-1H-pyrrolizin-7a(5H)-yl)methoxy)quinazolin-7-yl)-7-fluorobenzo[b]thiophene-3-carbonitrile] | < 5 |
| N#Cc1c(N)sc2c(F)ccc(-c3c(Cl)cc4c(N5CCCCC6(CN(C(=O)C78CC(C#N)(C7)C8)C6)C5)nc(OC[C@@]56CCCN5C[C@H](F)C6)nc4c3F)c12 [compound 321, 2-amino-4-(6-chloro-4-(2-(3-cyanobicyclo[1.1.1]pentane-1-carbonyl)-2,6-diazaspiro[3.6]decan-6-yl)-8-fluoro-2-(((2R,7aS)-2-fluorotetrahydro-1H-pyrrolizin-7a(5H)-yl)methoxy)quinazolin-7-yl)-7-fluorobenzo[b]thiophene-3-carbonitrile] | < 5 |
| N#Cc1c(N)sc2c(F)ccc(-c3c(Cl)cc4c(N5CCCCC6(CN(C(=O)CC7CC7(F)F)C6)C5)nc(OC[C@@]56CCCN5C[C@H](F)C6)nc4c3F)c12 (stereo partly drawn) [compound 331, 2-amino-4-(6-chloro-4-(2-(2-(2,2-difluorocyclopropyl)acetyl)-2,6-diazaspiro[3.6]decan-6-yl)-8-fluoro-2-(((2R,7aS)-2-fluorotetrahydro-1H-pyrrolizin-7a(5H)-yl)methoxy)quinazolin-7-yl)-7-fluorobenzo[b]thiophene-3-carbonitrile] | < 5 |
| N#Cc1c(N)sc2c(F)ccc(-c3c(Cl)cc4c(N5CCCCC6(CN(C(=O)C7CC78CCOC8)C6)C5)nc(OC[C@@]56CCCN5C[C@H](F)C6)nc4c3F)c12 (stereo partly drawn) [compound 310, 4-(4-(2-(5-oxaspiro[2.4]heptane-1-carbonyl)-2,6-diazaspiro[3.6]decan-6-yl)-6-chloro-8-fluoro-2-(((2R,7aS)-2-fluorotetrahydro-1H-pyrrolizin-7a(5H)-yl)methoxy)quinazolin-7-yl)-2-amino-7-fluorobenzo [b]thiophene-3-carbonitrile] | < 5 |
| N#Cc1c(N)sc2c(F)ccc(-c3c(Cl)cc4c(N5CCCCC6(CN(C(=O)N7CC[C@H]7C#N)C6)C5)nc(OC[C@@]56CCCN5C[C@H](F)C6)nc4c3F)c12 [compound 264, (2S)-1-(6-(7-(2-amino-3-cyano-7-fluorobenzo[b]thiophen-4-yl)-6-chloro-8-fluoro-2-(((2R,7aS)-2-fluorotetrahydro-1H-pyrrolizin-7a(5H)-yl)methoxy)quinazolin-4-yl)-2,6-diazaspiro[3.6]decane-2-carbonyl)azetidine-2-carbonitrile] | < 5 |
| N#Cc1c(N)sc2c(F)ccc(-c3c(Cl)cc4c(N5CCCCC6(CN(C(=O)NC7(C(F)(F)F)CC7)C6)C5)nc(OC[C@@]56CCCN5C[C@H](F)C6)nc4c3F)c12 [compound 315, 6-(7-(2-amino-3-cyano-7-fluorobenzo[b]thiophen-4-yl)-6-chloro-8-fluoro-2-(((2R,7aS)-2-fluorotetrahydro-1H-pyrrolizin-7a(5H)-yl)methoxy)quinazolin-4-yl)-N-(1-(trifluoromethyl)cyclopropyl)-2,6-diazaspiro[3.6]decane-2-carboxamide] | < 5 |
| N#Cc1c(N)sc2c(F)ccc(-c3c(Cl)cc4c(N5CCCCC6(CN(C(=O)N7CC(F)(F)C7)C6)C5)nc(OC[C@@]56CCCN5C[C@H](F)C6)nc4c3F)c12 [compound 307, 2-amino-4-(6-chloro-4-(2-(3,3-difluoroazetidine-1-carbonyl)-2,6-diazaspiro[3.6]decan-6-yl)-8-fluoro-2-(((2R,7aS)-2-fluorotetrahydro-1H-pyrrolizin-7a(5H)-yl)methoxy)quinazolin-7-yl)-7-fluorobenzo[b]thiophene-3-carbonitrile] | < 5 |
| CN1CCC[C@H]1COc1nc(N2CCOC3(CNC3)C2)c2cc(Cl)c(-c3ccc(F)c4sc(N)c(C#N)c34)c(F)c2n1 (single isomer, unassigned; atropisomer 2) [compound 121] | < 5 |
| N#Cc1c(N)sc2c(F)ccc(-c3c(Cl)cc4c(N5CCCCC6(CN(C(=O)CC7COC7)C6)C5)nc(OC[C@@]56CCCN5C[C@H](F)C6)nc4c3F)c12 [compound 297, 2-amino-4-(6-chloro-8-fluoro-2-(((2R,7aS)-2-fluorotetrahydro-1H-pyrrolizin-7a(5H)-yl)methoxy)-4-(2-(2-(oxetan-3-yl)acetyl)-2,6-diazaspiro[3.6]decan-6-yl)quinazolin-7-yl)-7-fluorobenzo[b]thiophene-3-carbonitrile] | < 5 |

target: T2, KRASwt (Homo sapiens, UniProt P01116); test: Bio-Biochem-PPI-HTRF Ras-SOS1 interaction assay (KRAS wt); format: biochemical; settings: 5 nM
T2 construct: made in house; host or cells: E. coli BL21 (DE3)
Description: as §1

T2 sequence (P01116 1-188 isoform P01116-2): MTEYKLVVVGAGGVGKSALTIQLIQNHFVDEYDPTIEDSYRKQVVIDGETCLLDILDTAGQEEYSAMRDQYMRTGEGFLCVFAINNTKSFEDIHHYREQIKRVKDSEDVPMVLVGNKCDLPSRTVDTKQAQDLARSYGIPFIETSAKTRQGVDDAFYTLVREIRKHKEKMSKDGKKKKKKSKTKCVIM

| SMILES | IC50 [µM] |
| --- | --- |
| N#Cc1c(N)sc2c(F)ccc(-c3c(Cl)cc4c(N5CCCCC6(CN(C(=O)C7CC7C(F)(F)F)C6)C5)nc(OC[C@@]56CCCN5C[C@H](F)C6)nc4c3F)c12 (stereo partly drawn) [compound 311, 2-amino-4-(6-chloro-8-fluoro-2-(((2R,7aS)-2-fluorotetrahydro-1H-pyrrolizin-7a(5H)-yl)methoxy)-4-(2-(2-(trifluoromethyl)cyclopropane-1-carbonyl)-2,6-diazaspiro[3.6]decan-6-yl)quinazolin-7-yl)-7-fluorobenzo[b]thiophene-3-carbonitrile] | < 5 |
| CC(C)=C(C#N)C(=O)N1CC2(C1)CN(c1nc(OC[C@@]34CCCN3C[C@H](F)C4)nc3c(F)c(-c4ccc(F)c5sc(N)c(C#N)c45)c(Cl)cc13)CCO2 [compound 245, 2-amino-4-(6-chloro-4-(2-(2-cyano-3-methylbut-2-enoyl)-5-oxa-2,8-diazaspiro[3.5]nonan-8-yl)-8-fluoro-2-(((2R,7aS)-2-fluorotetrahydro-1H-pyrrolizin-7a(5H)-yl)methoxy)quinazolin-7-yl)-7-fluorobenzo[b]thiophene-3-carbonitrile] | < 5 |
| N#Cc1c(N)sc2c(F)ccc(-c3c(Cl)cc4c(N5CCCCC6(CN(C(=O)C7CC8CCC7O8)C6)C5)nc(OC[C@@]56CCCN5C[C@H](F)C6)nc4c3F)c12 (stereo partly drawn) [compound 303, 4-(4-(2-(7-oxabicyclo[2.2.1]heptane-2-carbonyl)-2,6-diazaspiro[3.6]decan-6-yl)-6-chloro-8-fluoro-2-(((2R,7aS)-2-fluorotetrahydro-1H-pyrrolizin-7a(5H)-yl)methoxy)quinazolin-7-yl)-2-amino-7-fluorobenzo[b]thiophene-3-carbonitrile] | < 5 |
